Measurements: paper PMC10657444, “Design and evaluation of tadpole-like conformational antimicrobial peptides” (Communications Biology, 2023)
In brackets after ≈: the same amount, converted by molar mass. Read-outs that look alike come from different tables or passages of the source. Residues, ends and D or L forms follow the SMILES beside them.

Assays:
A. baumannii 1337 = format: cell-based, Acinetobacter baumannii
Description: (§1) Bacteria were cultivated in Luria-Bertani (LB) broth.

A. baumannii 1318 = format: cell-based, Acinetobacter baumannii
Description: as §1

MTT cytotoxicity assay = format: cell-based, human; settings: human; for viability at 72 h, 0.39 µM / viability at 72 h, 0.78 µM / viability at 72 h, 1.57 µM / viability at 72 h, 6.25 µM / viability at 72 h, 12.5 µM / viability at 72 h, 25 µM / viability at 72 h, 50 µM / viability at 72 h, 100 µM / viability at 72 h, 3.13 µM: HEK293T cells, OD450, cytotoxicity (Fig 2a), replicates
Procedure: (§2) To determine the cytotoxicity of the peptides, we used the MTT (3-(4,5)-dimethylthiahiazo (-z-y1)-3,5-di-phenytetrazoliumromide) dye reduction assay against HEK293T cells. In brief, the 100 μL of cells in 96-well plate were incubated for 24 h at 37 °C, 5% CO2, and then peptide solutions (concentrations ranging from 100 to 0.39 μM) were added and further incubated for 72 h. MTT solution (5 mg/mL) was added and further incubated for 4 h. After incubation, the precipitated MTT formazan crystal was dissolved by addition of dimethyl sulfoxide (DMSO). […]

HEK293T cells = assay: MTT cytotoxicity assay; format: cell-based, human
Procedure: as §2

sheep red blood cells = assay: Hemolysis assay; settings: red cells of sheep, 1 h
Procedure: To evaluate the hemolysis effects of peptides, red blood hemolysis was performed as described with minimum modifications. Sterile defibrated sheep blood was purchased from Guangzhou Hongquan Biotechnology Co., LTD. Blood cells were adjusted to 2 × 10^9 cells/mL in phosphate-buffered saline (PBS, pH 7.4). In total, 98 μL sheep red blood cell suspension was incubated with 2 μL of peptides at different concentrations ranging from 3.13 to 100 µM. After incubation for 1 h at 37 °C, the cells were centrifuged and the absorbance of the supernatant was measured at 450 nm. The value for “zero hemolysis” was determined using sterile PBS, while 100% hemolysis was established using 1.5% (v/v) Triton X-100. Hemolysis of testing sample was calculated as the percentage of Triton X-100-induced hemolysis.

[1] = tested on: K. pneumoniae ATCC 700603; format: cell-based, Klebsiella pneumoniae
Description: as §1

K. pneumoniae 3026 = format: cell-based, Klebsiella pneumoniae
Description: as §1

[2] = tested on: Gram-negative bacterial strains; format: cell-based
Description: as §1

MRSA USA 300 = format: cell-based, Staphylococcus aureus
Description: as §1

MRSA 3393 = format: cell-based, Staphylococcus aureus
Description: as §1

MRSA ATCC 43300 = format: cell-based, Staphylococcus aureus
Description: as §1

E. coli ATCC 25922 = format: cell-based, Escherichia coli
Description: as §1

E. coli S = format: cell-based, Escherichia coli
Description: as §1

MRSA = format: cell-based, Staphylococcus aureus
Description: as §1

Structure (SMILES)	MIC Gram- A. b 1337 (A. baumannii 1337) [µM]	MIC Gram- A. b 1318 (A. baumannii 1318) [µM]	IC50 at 72 h (MTT cytotoxicity assay) [nM]	viability at 72 h, 0.39 µM (MTT cytotoxicity assay) [%]	viability at 72 h, 0.78 µM (MTT cytotoxicity assay) [%]	viability at 72 h, 1.57 µM (MTT cytotoxicity assay) [%]	viability at 72 h, 6.25 µM (MTT cytotoxicity assay) [%]	viability at 72 h, 12.5 µM (MTT cytotoxicity assay) [%]	viability at 72 h, 25 µM (MTT cytotoxicity assay) [%]	viability at 72 h, 50 µM (MTT cytotoxicity assay) [%]	viability at 72 h, 100 µM (MTT cytotoxicity assay) [%]	toxicity / cytotoxicity against HEK293T cells (in words) (HEK293T cells)	HC10 (concentration inducing 10% hemolysis) (sheep red blood cells) [µM]	MIC Gram- K. p ATCC 700603 [1] [µM]	MIC Gram- K. p 3026 (K. pneumoniae 3026) [µM]	MIC Gram+ MRSA USA 300 (MRSA USA 300) [µM]	MIC Gram+ MRSA ATCC 43300 (MRSA ATCC 43300; ATCC 43300) [µM]	MIC Gram- E. coli ATCC 25922 (E. coli ATCC 25922) [µM]	MIC Gram- E. coli S (E. coli S) [µM]	MIC Gram+ MRSA 3393 (MRSA 3393; 3393) [µM]	other results
CC[C@H](C)[C@H](NC(=O)[C@H](CCCNC(=N)N)NC(=O)[C@H](CCCNC(=N)N)NC(=O)[C@H](CC(C)C)NC(=O)[C@H](Cc1ccccc1)NC(=O)[C@H](Cc1ccccc1)NC(=O)[C@H](Cc1ccccc1)NC(=O)[C@@H](N)Cc1ccccc1)C(=O)N[C@@H](Cc1ccccc1)C(=O)N[C@@H](CCCNC(=N)N)C(=O)N[C@@H](CCCNC(=N)N)C(N)=O [F-SHf(R^5)-RR] (H-FFFFLRRIFRR-NH2; N-terminus assumed)	12.5 (≈ 20 µg/mL)	12.5 (≈ 20 µg/mL)	500	69.1	45.9	6.12	3.98	2.72	3.79	2.62	1.75	high toxicity	> 100.0	25 (≈ 40.1 µg/mL)	12.5 (≈ 20 µg/mL)	1.57 (≈ 2.52 µg/mL)	1.57 (≈ 2.52 µg/mL)	12.5 (≈ 20 µg/mL)	6.25 (≈ 10 µg/mL)	–	MICs against the tested Gram-negative bacterial strains [2]: 6.25 to 25 µM; MIC Gram+ MRSA 3393 (MRSA 3393): 1.57 µM (≈ 2.52 µg/mL); MIC Gram+ MRSA ATCC 43300 (MRSA ATCC 43300): 1.57 µM (≈ 2.52 µg/mL)
CC[C@H](C)[C@H](NC(=O)[C@H](CCCNC(=N)N)NC(=O)[C@H](CCCNC(=N)N)NC(=O)[C@H](CC(C)C)NC(=O)[C@H](Cc1ccccc1)NC(=O)[C@H](Cc1ccccc1)NC(=O)[C@H](Cc1ccccc1)NC(=O)[C@@H](N)Cc1ccccc1)C(=O)N[C@@H](Cc1ccccc1)C(=O)N[C@@H](CCCNC(=N)N)C(N)=O [F-SHf(R^5)-R] (H-FFFFLRRIFR-NH2; N-terminus assumed)	12.5 (≈ 18.1 µg/mL)	12.5 (≈ 18.1 µg/mL)	200	35.2	26.2	12.3	4.46	3.13	3.84	2.63	1.58	high toxicity	36.5	12.5 (≈ 18.1 µg/mL)	25 (≈ 36.2 µg/mL)	1.57 (≈ 2.27 µg/mL)	1.57 (≈ 2.27 µg/mL)	6.25 (≈ 9.05 µg/mL)	12.5 (≈ 18.1 µg/mL)	–	viability at 72 h, 3.13 µM (MTT cytotoxicity assay): 9.86%; MICs against the tested Gram-negative bacterial strains [2]: 6.25 to 25 µM; MIC Gram+ MRSA 3393 (MRSA 3393): 1.57 µM (≈ 2.27 µg/mL); MIC Gram+ MRSA ATCC 43300 (MRSA ATCC 43300): 1.57 µM (≈ 2.27 µg/mL)
CC[C@H](C)[C@H](NC(=O)[C@H](CCCNC(=N)N)NC(=O)[C@H](CCCNC(=N)N)NC(=O)[C@H](CC(C)C)NC(=O)[C@H](Cc1ccccc1)NC(=O)[C@H](Cc1ccccc1)NC(=O)[C@H](Cc1ccccc1)NC(=O)[C@@H](N)Cc1ccccc1)C(=O)N[C@@H](Cc1ccccc1)C(N)=O [F-SHf(R^5)] (H-FFFFLRRIF-NH2; N-terminus assumed)	25 (≈ 32.3 µg/mL)	25 (≈ 32.3 µg/mL)	4600	102	89.7	89.3	40.1	20.8	12.3	16.4	17.1	high toxicity	7.9	> 100	100 (≈ 129 µg/mL)	3.13 (≈ 4.04 µg/mL)	1.57 (≈ 2.03 µg/mL)	12.5 (≈ 16.1 µg/mL)	50 (≈ 64.6 µg/mL)	1.57 (≈ 2.03 µg/mL)	viability at 72 h, 3.13 µM (MTT cytotoxicity assay): 78.6%
CC[C@H](C)[C@H](NC(=O)[C@H](CCCNC(=N)N)NC(=O)[C@H](CO)NC(=O)[C@H](CC(C)C)NC(=O)[C@H](Cc1ccccc1)NC(=O)[C@H](Cc1ccccc1)NC(=O)[C@H](Cc1ccccc1)NC(=O)[C@H](Cc1ccccc1)NC(=O)[C@@H](N)Cc1ccccc1)C(=O)N[C@@H](Cc1ccccc1)C(N)=O [FF-SHf] (H-FFFFFLSRIF-NH2; N-terminus assumed)	> 100	> 100	–	–	–	–	–	–	–	–	–	–	–	> 100	> 100	6.25 (≈ 8.56 µg/mL)	50 (≈ 68.5 µg/mL)	> 100	> 100	3.13 (≈ 4.29 µg/mL)	MICs against MRSA (MRSA): 3.13 to 50 µM
CC[C@H](C)[C@H](NC(=O)[C@H](CCCNC(=N)N)NC(=O)[C@H](CO)NC(=O)[C@H](CC(C)C)NC(=O)[C@H](Cc1ccccc1)NC(=O)[C@H](Cc1ccccc1)NC(=O)[C@H](Cc1ccccc1)NC(=O)[C@@H](N)Cc1ccc(O)cc1)C(=O)N[C@@H](Cc1ccccc1)C(N)=O [Y-SHf] (H-YFFFLSRIF-NH2; N-terminus assumed)	> 100	> 100	–	–	–	–	–	–	–	–	–	–	–	> 100	> 100	12.5 (≈ 15.5 µg/mL)	12.5 (≈ 15.5 µg/mL)	> 100	> 100	12.5 (≈ 15.5 µg/mL)	–
CC[C@H](C)[C@H](NC(=O)[C@H](CCCNC(=N)N)NC(=O)[C@H](CO)NC(=O)[C@H](CC(C)C)NC(=O)[C@H](Cc1ccccc1)NC(=O)[C@H](Cc1ccccc1)NC(=O)[C@H](Cc1ccccc1)NC(=O)[C@H](Cc1ccc(O)cc1)NC(=O)[C@@H](N)Cc1ccc(O)cc1)C(=O)N[C@@H](Cc1ccccc1)C(N)=O [YY-SHf] (H-YYFFFLSRIF-NH2; N-terminus assumed)	> 100	> 100	–	–	–	–	–	–	–	–	–	–	–	> 100	> 100	6.25 (≈ 8.76 µg/mL)	6.25 (≈ 8.76 µg/mL)	> 100	> 100	50 (≈ 70.1 µg/mL)	MICs against MRSA (MRSA): 3.13 to 50 µM
